Results on 21 molecules are retold here after PubChem BioAssay (NCI).

Test systems include DMS 114 small cell lung; DMS 273 small cell lung; HOP-18 NSCLC; KM20L2 colon; LXFL 529 NSCLC; M19-MEL melanoma; SNB-78 CNS; XF 498 CNS; RXF-631 renal; P388 leukemia; SN12K1 renal.
Test in all cases: NCI tumour cell line growth inhibition, 48 h

“And” between values parts separate entries of the source, which are not always exact repeats. Equal values may be shown once.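 Test compounds were applied to cells in 96-well plates for 48 hours at 5 doses. GI50 is the concentration that inhibits growth by half. TGI: concentration producing complete growth inhibition.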 A value given as a limit tells only on which side of the number the result lay.

With `Cc1nn2c(nc1=O)sc1ccc3ccccc3c12`, the TGI in the test on DMS 114 small cell lung, in the test with DMS 273 small cell lung, in the test with HOP-18 NSCLC, in the test with KM20L2 colon, in the test on LXFL 529 NSCLC and with M19-MEL melanoma was above 100 µM each time. The TGI in the test on SNB-78 CNS and in the test on XF 498 CNS was above 100 µM throughout.

For `O=[N+]([O-])c1ccc(C2=Nn3c(nnc3-c3ccc(Cl)cc3)SC2)o1`, the TGI with DMS 114 small cell lung was found to be 12.4 µM; in the test on DMS 273 small cell lung it was 31.1 µM; in the test on HOP-18 NSCLC, 33.6 µM; in the test on KM20L2 colon it was 16.1 µM; in the test with LXFL 529 NSCLC, 14.1 µM; in the test with M19-MEL melanoma, 7.95 µM. Moreover, the results for the TGI in the test on RXF-631 renal, in the test on SNB-78 CNS and with XF 498 CNS were 27.9 µM, 38.6 µM and 28.7 µM, respectively.

For `CC1=CCCC2C1(C)CCC(C)C2(C)Cc1cc(O)ccc1O` (stereo not given), the TGI amounted to 13.3 µM in the test with DMS 114 small cell lung; 20.2 µM in the test on DMS 273 small cell lung; 36.2 µM in the test on HOP-18 NSCLC; 27.9 µM in the test with KM20L2 colon; 20.8 µM in the test on M19-MEL melanoma; 4.94 µM in the test with P388 leukemia. Further, the values for the TGI in the test on SN12K1 renal, with SNB-78 CNS and with XF 498 CNS were 13.5 µM, 11 µM and 21.7 µM, respectively.

As to `C(=N\Nc1ccccc1)/c1nc2ccccc2nc1/C=N/Nc1ccccc1`, the TGI with KM20L2 colon stood at 26.5 µM; with LXFL 529 NSCLC, 23 µM; with M19-MEL melanoma, 41.1 µM; in the test on RXF-631 renal it was 27.6 µM; in the test with SNB-78 CNS, 42.7 µM.

Consider `N#CCCCCCOCCOCCOCCOCCOCCCCCC#N`, for which the TGI with DMS 114 small cell lung, in the test with DMS 273 small cell lung, in the test on HOP-18 NSCLC, in the test on KM20L2 colon, in the test on LXFL 529 NSCLC and in the test on M19-MEL melanoma was above 100 µM in each case. This molecule also registered a TGI in the test with RXF-631 renal above 100 µM.

`O=C(NCc1cccnc1)C1COc2cc(-c3cc(=O)c4ccccc4o3)ccc2O1` (stereo not given): the TGI is above 79.5 µM with DMS 114 small cell lung; above 100 µM in the test with HOP-18 NSCLC; above 100 µM in the test on KM20L2 colon; above 100 µM in the test with LXFL 529 NSCLC; above 100 µM in the test on M19-MEL melanoma; above 100 µM with RXF-631 renal. Also, the results for the TGI in the test with SNB-78 CNS and in the test on XF 498 CNS were above 100 µM and 72.1 µM, respectively.

In the case of `COc1ccc(NC(=O)CC/C(CC(=O)c2ccco2)=N/NC(N)=S)cc1`, the TGI with DMS 114 small cell lung, in the test with DMS 273 small cell lung, in the test with HOP-18 NSCLC, in the test with KM20L2 colon, in the test with LXFL 529 NSCLC and with M19-MEL melanoma was above 100 µM each time. In addition, the TGI in the test on RXF-631 renal, in the test on SNB-78 CNS and in the test with XF 498 CNS was above 100 µM throughout.

As for `CC1(Br)CC2OC3(Br)C=CC(C)(O)C2(CC1=O)C3(C)C` (stereo not given), the TGI in the test on DMS 114 small cell lung, in the test with DMS 273 small cell lung, in the test on HOP-18 NSCLC, in the test with KM20L2 colon, in the test on LXFL 529 NSCLC and in the test on SNB-78 CNS was above 100 µM throughout. For the same molecule, the TGI with XF 498 CNS was above 100 µM.

For `CC[C@@]1(O)C(=O)OCc2c1cc1n(c2=O)Cc2cc3cccc([N+](=O)[O-])c3nc2-1`, the GI50 with DMS 114 small cell lung was 0.684 µM; in the test on DMS 273 small cell lung, 0.175 µM; with HOP-18 NSCLC, 1.85 µM; with KM20L2 colon, 3.24 µM; in the test with LXFL 529 NSCLC it was 14.2 µM; in the test with SNB-78 CNS, 34.3 µM. Moreover, the GI50 in the test on XF 498 CNS was 3.12 µM. For the same molecule, the TGI in the test with DMS 114 small cell lung was 38.3 µM; with DMS 273 small cell lung, 1.67 µM; in the test with HOP-18 NSCLC, above 100 µM; with KM20L2 colon, 41.7 µM; with LXFL 529 NSCLC it was above 100 µM; in the test on SNB-78 CNS, above 100 µM. The TGI in the test with XF 498 CNS stood at 34.6 µM.

For `CCOC(=O)NC/C=C/COC1CCCCO1` (stereo not given), the TGI in the test on DMS 114 small cell lung, in the test on DMS 273 small cell lung, with HOP-18 NSCLC, in the test on KM20L2 colon, in the test with LXFL 529 NSCLC and with M19-MEL melanoma was above 100 µM each time. Further, the TGI with SNB-78 CNS is above 100 µM.

Consider `Cc1cc(C)n(-c2ccnc3cc(Cl)ccc23)n1`, for which the TGI in the test on DMS 114 small cell lung, with DMS 273 small cell lung, in the test on HOP-18 NSCLC, in the test with KM20L2 colon, in the test on LXFL 529 NSCLC and in the test on M19-MEL melanoma was above 100 µM throughout. The TGI with SNB-78 CNS and in the test on XF 498 CNS was above 100 µM throughout.

As for `CCCCNC(=O)C1C(=O)N(CCCC)C(=O)/C1=N\N` (stereo not given), the TGI with DMS 114 small cell lung, in the test with DMS 273 small cell lung, in the test with HOP-18 NSCLC, in the test with KM20L2 colon, in the test on LXFL 529 NSCLC and in the test on M19-MEL melanoma was above 100 µM in each case. Also, the TGI with RXF-631 renal, with SNB-78 CNS and in the test on XF 498 CNS was above 100 µM in each case.

With `Nc1nc(Cl)cc(NCC(O)CO)n1` (stereo not given), the TGI in the test with DMS 114 small cell lung, in the test on DMS 273 small cell lung, with HOP-18 NSCLC, with KM20L2 colon, in the test with LXFL 529 NSCLC and with M19-MEL melanoma was above 100 µM in each case. Moreover, the TGI in the test on SNB-78 CNS and in the test on XF 498 CNS was above 100 µM in each case.

For the molecule `O=C1NC2C(=CC(O)C(O)C2O)c2cc3c(cc21)OCO3` (stereo not given), the GI50 in the test on DMS 114 small cell lung is 0.335 µM and 0.321 µM; with DMS 273 small cell lung, 0.604 µM and 0.301 µM; in the test with HOP-18 NSCLC it was 0.545 µM and 0.392 µM; in the test on KM20L2 colon, 0.34 µM and 0.261 µM; in the test on LXFL 529 NSCLC it was 0.313 µM; with M19-MEL melanoma it was 0.353 µM and 0.282 µM. Also, the GI50 with RXF-631 renal was 0.23 µM; in the test on SNB-78 CNS, 0.456 µM and 0.426 µM; with XF 498 CNS, 0.207 µM and 0.416 µM. Also, the TGI was 3.84 µM and 2.17 µM with DMS 114 small cell lung; 1.99 µM and 2.07 µM in the test with DMS 273 small cell lung; 4.33 µM and 13.1 µM in the test with HOP-18 NSCLC; 5.54 µM and 5.32 µM with KM20L2 colon; 3.66 µM in the test with LXFL 529 NSCLC; 1.72 µM and 1.53 µM in the test with M19-MEL melanoma. For the same molecule, the TGI in the test with P388 leukemia is 0.461 µM; in the test on RXF-631 renal it was 3.13 µM; in the test on SN12K1 renal, 1.8 µM; in the test with SNB-78 CNS, 4.94 µM and 11.2 µM; in the test with XF 498 CNS it was 0.93 µM and 1.81 µM and 0.644 µM.

As for `O=C(O)C(C(=O)O)P(=S)(S)c1ccccc1` (stereo not given), the TGI in the test with DMS 114 small cell lung, in the test with DMS 273 small cell lung, in the test on KM20L2 colon, in the test with LXFL 529 NSCLC, in the test on M19-MEL melanoma and with RXF-631 renal was above 100 µM throughout. The TGI in the test with SNB-78 CNS and with XF 498 CNS was above 100 µM throughout.

Take `O=c1c2ccccc2nc(/C=C(\O)c2ccncc2)n1-c1ccc(Cl)cc1`: the TGI with DMS 114 small cell lung is above 100 µM; with KM20L2 colon it was above 100 µM; with LXFL 529 NSCLC it was above 100 µM; in the test on M19-MEL melanoma it was above 100 µM; in the test with SNB-78 CNS it was above 100 µM; in the test with XF 498 CNS, 66.4 µM.

`O=C(OC1CCC2OOC1O2)c1ccc([N+](=O)[O-])cc1` (stereo not given): the TGI in the test on DMS 114 small cell lung, in the test on DMS 273 small cell lung, in the test with KM20L2 colon, in the test on M19-MEL melanoma and in the test with SNB-78 CNS was above 100 µM throughout.

With `CCOC(=O)C(N=C(c1ccccc1)c1ccccc1)N(C(=O)OC(C)(C)C)C(=O)OC(C)(C)C` (stereo not given), the TGI with DMS 114 small cell lung, in the test on KM20L2 colon, with LXFL 529 NSCLC, in the test with M19-MEL melanoma and in the test with SNB-78 CNS was above 100 µM in each case.

Turning to `CCCNCC(=O)O[C@]1(CC)C(=O)OCc2c1cc1n(c2=O)Cc2cc3ccccc3nc2-1`, the TGI with DMS 114 small cell lung is 0.941 µM; with DMS 273 small cell lung, 0.114 µM; with HOP-18 NSCLC it was above 100 µM; in the test on KM20L2 colon, 19.2 µM; in the test with LXFL 529 NSCLC it was 67.6 µM; with M19-MEL melanoma, 1.96 µM. In the test with XF 498 CNS, this molecule returned a TGI of 0.652 µM.

Turning to `CCC(O)C1Cc2c(C)cc3c(c2O1)C(=O)c1ccccc1C3=O` (stereo not given), the TGI was 97.7 µM in the test with DMS 114 small cell lung; above 100 µM in the test on DMS 273 small cell lung; 73.6 µM with HOP-18 NSCLC; above 100 µM in the test on KM20L2 colon; above 100 µM in the test on LXFL 529 NSCLC; above 100 µM in the test with M19-MEL melanoma. Further, the TGI in the test with SNB-78 CNS is 90.6 µM; in the test on XF 498 CNS, 58.9 µM.

In the case of `O=C(NC(=O)c1ccccc1[N+](=O)[O-])Nc1ccc(Oc2ncc(Cl)cn2)c([N+](=O)[O-])c1`, the TGI with DMS 114 small cell lung was 0.359 µM; in the test on DMS 273 small cell lung it was above 100 µM; in the test on HOP-18 NSCLC it was above 100 µM; with KM20L2 colon, 0.383 µM; in the test with LXFL 529 NSCLC, above 100 µM; in the test with M19-MEL melanoma, above 100 µM. The TGI in the test with RXF-631 renal and in the test with SNB-78 CNS was above 100 µM throughout.
